In patent US20210024499A1, “OXIDIZED BIS(3-INDOLYL)METHANES AND USES THEREOF” (Sanford Burnam Prebys Medical Discovery Institute, priority 2018, published 2021):

Legend:
Nur77−/−MEFs = assay: PARP cleavage, Nur77-/- MEFs; assay type: cell-based, mouse; conditions: 0.5 μM
Protocol: The apoptotic effect of Compound 1 was examined in mouse embryonic fibroblast (MEF) and MEF lacking Nur77 (Nur77^−/−MEF). […] Induction of PARP cleavage (as performed in Example A-7) in MEFs by Compound 1 at 0.5 μM was also attenuated in Nur77^−/−MEFs.

MDA-MB-231 cells = assay: Mitochondrial ROS, MDA-MB-231; assay type: cell-based; conditions: dose dependent, 6 hours
Protocol: (§1) Loss of mitochondrial membrane potential (Avm) represents one of the hallmarks of apoptosis. A JC-1 probe was employed to measure mitochondrial depolarization in cancer cells. MDA-MB-231 breast cancer cells were treated with different concentration of test compounds for 6 hours. JC-1 staining solution (5 μg/ml) was added at 37° C. for 20 min. After washing with PBS twice, mitochondrial membrane potentials were monitored by determining the relative amounts of dual emission from a multiple fluorescence reader. The fluorescence in cells was quantitatively analyzed by flow cytometry. Mitochondrial depolarization is depicted by an increase in the green/red fluorescence intensity ratio. ROS were monitored with the oxiadtion-senstive fluorescent probe 2′7′-dichlorodihydroflurescenin diacetate (DCF-DA).

[1] = test system: MDA-MB-231 breast cancer cells; assay: Mitochondrial membrane potential (JC-1), MDA-MB-231; assay type: cell-based; conditions: MDA-MB-231 cells, 1 μM, 6 h
Protocol: as §1
In healthy cells with high Δψwm, JC-1 forms complexes with intense red fluorescence. However, in cells with low Δψm, JC-1 remains in the monomeric form with green fluorescence. Mitochondrial depolarization is depicted by an increase in the green/red fluorescence intensity ratio.

[2] = test system: HEK293T cells transfected with Nur77-LBD; assay: Apoptosis in HEK293T cells transfected with Nur77-LBD (confocal microscopy); assay type: cell-based
Excerpt: The ligand-binding domain (LBD) of Nur77, Nur77-LBD, was transfected into HEK293T cells. Transfection of Nur77-LBD enhanced the apoptotic effect of Compound 1, with 36% of the transfected HEK293T cells undergoing apoptosis, while 4.5% of the non-transfected cells were apoptotic, as measured by confocal microscopy.

HCT116 cancer cells = assay: Apoptosis assay, Annexin V-FITC/propidium iodide flow cytometry; assay type: cell-based; conditions: Homo sapiens, HCT-116, 6 hours, Annexin V-FITC/PI flow cytometry (Table 4)
Protocol: HCT116 cancer cells plated at a density of 1×10^6 per well on six-well plates were treated with different concentration of test compounds for 6 hours, and then the suspension and the adherent cells were collected, stained with Annexin V-FITC for 15 minutes and with propodium iodide for 5 minutes, and analyzed immediately by cytoFLEX Flow Cytometry System (Beckman-Coulter, Miami, Fla., USA) using FITC and PC5.5 (Table 4).

Nur77−/− HeLa cells = assay: Mitochondrial ROS, Nur77 knockout HeLa; assay type: cell-based
Protocol: as §1
Furthermore, Nur77^−/−HeLa cells were more resistant than the parental HeLa cells to Compound 1 in its induction of the mitochondrial membrane potential loss measured by JC1 staining and in the release of mitochondrial ROS (as performed in Example A-12).

Bcl-2−/−HeLa cells = assay: Annexin V/PI staining, Bcl-2 knockout HeLa; assay type: cell-based
Protocol: (§2) Knocking out Nur77 and Bcl-2 from HeLa cells employed the CRISPR/Cas9 system. gRNA targeting sequence of Nur77 (5′-[…]-3′) and Bcl-2 (5′-[…]-3′) was cloned into gRNA cloning vector Px330 (Addgene, 71707) and confirmed by sequencing. To screen for cells lacking Nur77 or Bcl-2, HeLa cells were transfected with control vector and gRNA expression vectors, followed by G418 selection (0.5mg/m1). Single colonies were subjected to Western blotting using anti-Nur77 and anti-Bcl-2 antibody to select knockout cells.
The apoptotic effect of Compound lwas also evaluated in Bcl-2 genome knockout HeLa cells generated by CRISPR/Cas9 technology (Example A-5).

MDA-MB-231 cancer cells = assay: Cell viability (MTT) assay, MDA-MB-231; assay type: cell-based; conditions: Homo sapiens; inhibiting the growth of MDA-MB-231 cancer cells, cell viability assay (Table 6)
Protocol: Cell viability was analyzed by using a colorimetric 3-(4,5-dimethylthiazol-[…]2-yl)-2,5-diphenyletetrazolium Bromide (MTT) assay that determines mitochondrial dehydrogenase activities in the living cells with a colorimetric method. Cells treated with test compounds were incubated with MTT and their effect on the viability of the cells was assayed by the ability of treated cells to reduce the yellow tetrazolium dye MTT to its insoluble formazan, which has a purple color. […]

Nur77 = molecular target: T1, Nur77 (Homo sapiens, UniProt P22736); assay: Immunostaining of Nur77 localization, HCT116; assay type: cell-based; conditions: HCT116 cells, 0.5 μM, 2 hours
T1 construct: expressed in transfected cells
T1 sequence (P22736 whole entry): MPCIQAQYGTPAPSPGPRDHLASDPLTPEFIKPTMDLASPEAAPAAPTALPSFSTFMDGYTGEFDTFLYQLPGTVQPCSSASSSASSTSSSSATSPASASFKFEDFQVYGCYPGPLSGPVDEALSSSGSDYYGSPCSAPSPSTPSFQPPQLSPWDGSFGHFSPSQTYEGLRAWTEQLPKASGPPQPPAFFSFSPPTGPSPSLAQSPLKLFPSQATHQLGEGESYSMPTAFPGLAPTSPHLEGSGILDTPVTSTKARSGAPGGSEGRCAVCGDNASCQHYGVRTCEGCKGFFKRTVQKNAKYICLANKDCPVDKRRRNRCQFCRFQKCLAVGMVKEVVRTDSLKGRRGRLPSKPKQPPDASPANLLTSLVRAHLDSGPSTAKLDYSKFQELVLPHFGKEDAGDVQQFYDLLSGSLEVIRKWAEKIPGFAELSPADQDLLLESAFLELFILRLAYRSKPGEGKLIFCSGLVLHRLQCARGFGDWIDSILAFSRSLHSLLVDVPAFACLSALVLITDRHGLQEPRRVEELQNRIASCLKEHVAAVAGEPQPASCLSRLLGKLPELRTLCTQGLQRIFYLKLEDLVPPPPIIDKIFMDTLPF
Protocol: (§3) Cells were fixed in 3.7% paraformaldehyde. For mitochondrial staining, cells were incubated with anti-Hsp60 goat immunoglobulin G (IgG) (Santa Cruz Biotechnology, Santa Cruz, Calif.), followed by anti-goat IgG conjugated with Cy3. The nuclei were visualized by DAPI staining. Fluorescent images were collected and analyzed by using a fluorescence microscopy or MRC-1024 MP laser-scanning confocal microscope (Bio-Rad, Hercules, Calif.).
(§4) To confirm the effect of Compound 1 on Nur77 cytoplasmic localization, HEK293T cells were transfected with GFP-Nur77 and subsequently treated with 0.5 μM Compound 1.

Bcl-2−/− HeLa cells = assay: Mitochondrial ROS, Bcl-2 knockout HeLa; assay type: cell-based
Protocol: as §1
In addition, Bcl-2^−/−HeLa cells were more resistant than the parental HeLa cells to Compound 1 in its induction of the mitochondrial membrane potential loss measured by JC1 staining and in the release of mitochondrial ROS (as performed in Example A-12).

SW620 xenograft tumor = assay: SW620 xenograft nude mouse study; assay type: in vivo, BALB/c nude mice
Protocol: Male BALB/c nude mice (6 weeks old) were subcutaneously injected with log growth-phase of SW620 cells (1×10^6 cells in 0.1 ml PBS). Mice were treated orally after 7 days of transplantation with Compound 1 once a day. Body weight and tumor size were measured every 3 days. Tumors were measured and weighted. Tissues isolated from the nude mice were fixed with 4% paraformaldehyde. TdT-mediated dUTP nick end labeling assay was performed according to the manufacturer's instructions (In situ Cell Death Detection Kit; Roche).

GFP-Nur77 = GFP-Nur77 (Homo sapiens, UniProt P22736); assay: GFP-Nur77 localization in transfected HEK293T cells; assay type: cell-based; conditions: HEK293T cells transfected with GFP-Nur77, 0.5 μM
Chain of GFP-Nur77 (P22736 whole entry): as above
Protocol: as §3, §4

Nur77−/−HeLa cells = assay: Annexin V/PI staining, Nur77 knockout HeLa; assay type: cell-based
Protocol: as §2
The apoptotic effect of Compound lwas also evaluated in Nur77 genome knockout HeLa cells generated by CRISPR/Cas9 technology (Example A-5).

[3] = test system: Nur77 interaction with Bcl-2; assay: Confocal microscopy colocalization of Nur77 with Bcl-2; assay type: cell-based

For `FC(F)(F)c1ccc([C+](c2c[nH]c3ccccc23)c2c[nH]c3ccccc23)cc1` [Compound 1, Bis(1H-indol-3-yl)(4-(trifluoromethyl)phenyl)methylium methanesulfonate], which “induction of PARP cleavage relative to MEFs” value (Nur77−/−MEFs) is on record?
Its value is “attenuated”.

And the “intracellular mitochondrial reactive oxygen species (mito-ROS)” value (MDA-MB-231 cells)?
The value was “marked increase”.

What about the “JC-1 green to red ratio (control 100%)” value [1] of the same compound?
Its value is 345%.

And the cells undergoing apoptosis [2]?
The cells undergoing apoptosis was 36%.

And the IC50 (HCT116 cancer cells)?
Its IC50 is under 500 nM.

And the “increase in mito-ROS relative to regular HeLa cells” value (Nur77−/− HeLa cells)?
Its value is “smaller increase”.

And the “apoptotic effect (Annexin V/PI staining)” value (Bcl-2−/−HeLa cells)?
The value was 7.95%.

And the IC50 (MDA-MB-231 cancer cells)?
The IC50 was under 500 nM.

What about the “Nur77 subcellular localization (immunostaining)” value (Nur77) of the same compound?
Its value is “predominantly cytoplasmic”.

What about the “increase in mito-ROS relative to regular HeLa cells” value (Bcl-2−/− HeLa cells) of the same compound?
Its value is “smaller increase”.

And the “apoptosis in tumor specimens (TUNEL assay)” value (SW620 xenograft tumor; SW620 xenograft, compared to control tumor)?
The value was “extensive apoptosis”.

What about the “growth of SW620 xenograft tumor” value (SW620 xenograft tumor; nude mice, oral, once a day (FIGS. 6A-6B)) of the same compound?
Its value is “inhibited the growth of SW620 xenograft tumor in a dose and time-dependent manner”.

And the GFP-Nur77 subcellular localization (GFP-Nur77)?
Its GFP-Nur77 subcellular localization is “diffusely distributed in both the cytoplasm and nucleus”.

And the “apoptotic effect (Annexin V/PI staining)” value (Nur77−/−HeLa cells)?
The value was 3.25%.

And the “colocalization of transfected GFP-Nur77 (and GFP-Nur77-LBD) with Bcl-2” value [3]?
The value was “promoted extensive colocalization”.
